Converted amounts (≈) assume the structure as drawn.

Some test systems named below: Klebsiella pneumoniae; Salmonella typhimurium; Pseudomonas aeruginosa; Streptococcus mutans; Escherichia coli 363; Escherichia coli B; Staphylococcus aureus; Bacillus megaterium Bm11; Proteus mirabilis; Escherichia coli ML-35; Escherichia coli.
Common to all, as to assay: ≥ marks a high value that may be exact or a test limit, other limits are often not marked, values filed in µg/mL are converted to µM
The subject of assay [1] is Trichosporon beigelii KCTC 7707.
Assay [2] concerns Candida albicans TIMM 1768.
Assay [3] deals with Saccharomyces cerevisiae KCTC 7296.
Assay [4] concerns Escherichia coli DH5alpha.
The subject of assay [5] is Micrococcus luteus ATCC 9341.
For assay [6], the system named is Pseudomonas aeruginosa ATCC 27853.
For assay [7], the system named is Staphylococcus aureus ATCC 33591.
The subject of assay [8] is Staphylococcus aureus ATCC 25923.
Assay [9] has as its system Staphylococcus epidermidis ATCC 35984.
Assay [10] relates to Candida parapsilosis ATCC 22019.
In assay [11] the test system is Candida albicans ATCC 24433.
For assay [12], the system named is Salmonella enterica subsp. enterica serovar Typhimurium ATCC 14028.

As to `CC[C@H](C)[C@H](NC(=O)[C@@H](NC(=O)[C@@H](N)CCCN=C(N)N)[C@@H](C)CC)C(=O)N[C@@H](CC(=O)O)C(=O)N[C@@H](CC(C)C)C(=O)N[C@@H](CC(C)C)C(=O)N[C@@H](Cc1c[nH]c2ccccc12)C(=O)N[C@@H](CCCN=C(N)N)C(=O)N[C@H](C(=O)N[C@@H](CCCN=C(N)N)C(=O)N[C@@H](CCCN=C(N)N)C(=O)N1CCC[C@H]1C(=O)N[C@@H](Cc1c[nH]c2ccccc12)C(=O)N[C@@H](Cc1c[nH]c2ccccc12)C(=O)N1CCC[C@H]1C(=O)N[C@@H](CCCCN)C(=O)N[C@@H](Cc1ccccc1)C(=O)N[C@H](C(=O)N[C@H](C(=O)N[C@H](C(=O)N[C@@H](Cc1c[nH]c2ccccc12)C(=O)N[C@H](C(=O)N[C@@H](CCCN=C(N)N)C(N)=O)C(C)C)C(C)C)[C@@H](C)O)C(C)C)C(C)C` [RIIDLLWRVRRPWWPKFVTVWVR], the values for the MIC in [1], in [2] and in assay [3] were 20 µM (≈ 61.6 µg/mL), 10 µM (≈ 30.8 µg/mL) and 14.1 µM (≈ 43.5 µg/mL), respectively.

With `CC[C@H](C)[C@H](N)C(=O)N[C@@H](CC(C)C)C(=O)N[C@@H](C)C(=O)N[C@@H](Cc1c[nH]c2ccccc12)C(=O)N[C@@H](CCCCN)C(=O)N[C@@H](Cc1c[nH]c2ccccc12)C(=O)N1CCC[C@H]1C(=O)N[C@@H](Cc1c[nH]c2ccccc12)C(=O)N[C@@H](Cc1c[nH]c2ccccc12)C(=O)N1CCC[C@H]1C(=O)N[C@@H](Cc1c[nH]c2ccccc12)C(=O)N[C@@H](CCCN=C(N)N)C(=O)N[C@@H](CCCN=C(N)N)C(N)=O` [ILAWKWPWWPWRR], the minimum inhibitory concentration (MIC) (commonly the smallest concentration in the dilution series that meets the test's criterion for growth inhibition) is no less than 35 µM in assay [4]; 35 µM (≈ 65.8 µg/mL) with Klebsiella pneumoniae; 0.4 µM (≈ 0.752 µg/mL) in assay [5]; no less than 50 µM against Salmonella typhimurium; 50 µM (≈ 94 µg/mL) with Pseudomonas aeruginosa.

Take `CC[C@H](C)[C@H](NC(=O)[C@H](CCCCN)NC(=O)[C@@H](NC(=O)[C@H](Cc1ccccc1)NC(=O)[C@H](C)NC(=O)[C@H](CCCCN)NC(=O)CNC(=O)[C@H](Cc1ccccc1)NC(=O)[C@H](CCCCN)NC(=O)[C@H](CCCCN)NC(=O)[C@H](C)NC(=O)[C@H](CCCCN)NC(=O)[C@H](CCCCN)NC(=O)[C@H](CC(C)C)NC(=O)[C@@H](N)Cc1ccccc1)C(C)C)C(=O)N[C@@H](CC(C)C)C(=O)N[C@@H](CCCCN)C(N)=O` [FLKKAKKFGKAFVKILK]: the MIC in assay [6] was 1 µM (≈ 2 µg/mL); in assay [7], no less than 128 µM; in [8], 45.4 µM (≈ 90.5 µg/mL); in assay [9], 1.42 µM (≈ 2.83 µg/mL).

With `CC[C@H](C)[C@H](NC(=O)[C@@H](NC(=O)[C@@H](N)CCCN=C(N)N)[C@@H](C)CC)C(=O)N[C@@H](CC(=O)O)C(=O)N[C@@H](CC(C)C)C(=O)N[C@@H](CC(C)C)C(=O)N[C@@H](Cc1c[nH]c2ccccc12)C(=O)N[C@@H](CCCN=C(N)N)C(=O)N[C@H](C(=O)N[C@@H](Cc1c[nH]c2ccccc12)C(=O)N[C@@H](CCCN=C(N)N)C(=O)N1CCC[C@H]1C(=O)N[C@@H](CCC(N)=O)C(=O)N[C@@H](CCCCN)C(=O)N1CCC[C@H]1C(=O)N[C@@H](CCCCN)C(=O)N[C@@H](Cc1ccccc1)C(=O)N[C@H](C(=O)N[C@H](C(=O)N[C@H](C(=O)N[C@@H](Cc1c[nH]c2ccccc12)C(=O)N[C@H](C(=O)N[C@@H](CCCN=C(N)N)C(N)=O)C(C)C)C(C)C)[C@@H](C)O)C(C)C)C(C)C` [RIIDLLWRVWRPQKPKFVTVWVR], the MIC in [1] came to 10 µM (≈ 29.9 µg/mL); in [2], 20 µM (≈ 59.8 µg/mL); in assay [3] it was 10 µM (≈ 29.9 µg/mL).

For the compound `CC(C)C[C@H](NC(=O)[C@H](Cc1ccccc1)NC(=O)[C@H](Cc1cnc[nH]1)NC(=O)[C@H](Cc1ccc(O)cc1)NC(=O)[C@@H](N)CC(C)C)C(=O)N[C@@H](Cc1cnc[nH]1)C(=O)N[C@@H](Cc1c[nH]c2ccccc12)C(=O)N[C@@H](Cc1ccccc1)C(=O)N[C@@H](CCC(N)=O)C(=O)N[C@@H](CCCN=C(N)N)C(=O)N[C@@H](Cc1ccccc1)C(N)=O` [LYHFLHWFQRF], the MIC in the assay on Streptococcus mutans was no less than 78.4 µM.

Regarding `CC(C)C[C@H](NC(=O)[C@H](CCCN=C(N)N)NC(=O)[C@H](CCC(N)=O)NC(=O)[C@H](Cc1cnc[nH]1)NC(=O)[C@@H](NC(=O)[C@H](CCCCN)NC(=O)[C@H](CC(C)C)NC(=O)[C@H](CCC(=O)O)NC(=O)[C@H](CO)NC(=O)[C@H](CCCN=C(N)N)NC(=O)[C@@H](N)CO)C(C)C)C(=O)N[C@@H](Cc1ccccc1)C(N)=O` [SRSELKVHQRLF], the MIC in assay [10] and in assay [11] was no less than 267 µM throughout.

For the compound `CC[C@H](C)[C@H](NC(=O)[C@H](CCCCN)NC(=O)[C@H](CO)NC(=O)[C@H](Cc1c[nH]c2ccccc12)NC(=O)[C@H](CC(C)C)NC(=O)CN)C(=O)N[C@@H](CCCCN)C(=O)N[C@@H](CCC(=O)O)C(=O)N[C@H](C(=O)NCC(=O)N[C@@H](CCCCN)C(=O)N[C@@H](CCC(=O)O)C(=O)N[C@@H](C)C(=O)N[C@@H](C)C(=O)N[C@@H](CCCCN)C(=O)N[C@@H](C)C(=O)N[C@@H](C)C(=O)N[C@@H](C)C(=O)N[C@@H](CCCCN)C(=O)N[C@@H](C)C(=O)N[C@@H](C)C(=O)NCC(=O)N[C@@H](CCCCN)C(N)=O)C(C)C` [GLWSKIKEVGKEAAKAAAKAAGK], the MIC is 25 µM (≈ 57.8 µg/mL) against Escherichia coli 363, no less than 50 µM against Escherichia coli B, greater than 100 µM against Staphylococcus aureus and 100 µM (≈ 231 µg/mL) against Pseudomonas aeruginosa.

For `CC[C@H](C)[C@H](NC(=O)[C@H](CCC(N)=O)NC(=O)[C@H](CCCCN)NC(=O)[C@H](Cc1ccccc1)NC(=O)[C@@H](NC(=O)[C@H](CCC(N)=O)NC(=O)[C@H](CC(C)C)NC(=O)[C@H](CC(C)C)NC(=O)[C@@H](N)CCCCN)[C@@H](C)O)C(=O)N[C@@H](Cc1ccccc1)C(=O)N[C@@H](CCCN=C(N)N)C(=O)O` [KLLQTFKQIFR], the MIC with Streptococcus mutans is no less than 176 µM.

For the compound `CC[C@H](C)[C@H](NC(=O)[C@H](CCCCN)NC(=O)[C@@H](NC(=O)[C@H](Cc1ccccc1)NC(=O)[C@H](C)NC(=O)[C@H](CCCCN)NC(=O)CNC(=O)[C@H](Cc1ccccc1)NC(=O)[C@H](CCCCN)NC(=O)[C@H](CCCCN)NC(=O)[C@H](C)NC(=O)[C@@H](N)CCCCN)C(C)C)C(N)=O` [KAKKFGKAFVKI], the MIC in assay [6] is 66.3 µM (≈ 90.4 µg/mL); in [7] it was no less than 375 µM; in assay [8], greater than 375 µM; in [9], no less than 133 µM.

With `CC[C@H](C)[C@H](NC(=O)[C@H](CCCCN)NC(=O)[C@H](CCCCN)NC(=O)[C@H](Cc1ccccc1)NC(=O)[C@H](CCCCN)NC(=O)[C@H](CCC(=O)O)NC(=O)CNC(=O)[C@@H](NC(=O)[C@H](CCCCN)NC(=O)[C@H](CCCCN)NC(=O)[C@H](CC(C)C)NC(=O)[C@H](Cc1ccccc1)NC(=O)[C@H](CC(=O)O)NC(=O)[C@H](CCCNC(=N)N)NC(=O)[C@H](CC(C)C)NC(=O)[C@H](CCCNC(=N)N)NC(=O)[C@H](CCCNC(=N)N)NC(=O)[C@H](CC(C)C)NC(=O)[C@H](CC(C)C)NC(=O)CN)[C@@H](C)CC)C(=O)NCC(=O)N[C@H](C=O)Cc1ccc(O)cc1` [GLLRRLRDFLKKIGEKFKKIGY], the MIC with Bacillus megaterium Bm11 is 1 µM (≈ 2.66 µg/mL); in the assay with Proteus mirabilis, no less than 32 µM; with Escherichia coli ML-35 it was 4 µM (≈ 10.7 µg/mL); in assay [8], 4 µM (≈ 10.7 µg/mL); against Escherichia coli it was 4 µM (≈ 10.7 µg/mL); in assay [12], 4 µM (≈ 10.7 µg/mL). In the assay on Staphylococcus aureus, this compound showed an MIC of 2 µM (≈ 5.33 µg/mL).

As to `CC(C)C[C@H](NC(=O)[C@H](CCCN=C(N)N)NC(=O)[C@H](CCC(N)=O)NC(=O)[C@H](Cc1cnc[nH]1)NC(=O)[C@@H](NC(=O)[C@H](CCCN=C(N)N)NC(=O)[C@H](CC(C)C)NC(=O)[C@H](CCC(=O)O)NC(=O)[C@H](CO)NC(=O)[C@H](CCCN=C(N)N)NC(=O)[C@@H](N)CO)C(C)C)C(=O)N[C@@H](Cc1ccccc1)C(N)=O` [SRSELRVHQRLF], the MIC in assay [10] and in assay [11] was no less than 262 µM in each case.

The values above are taken from DBAASP.
